In patent US10941157B2, “Pesticidal compositions and uses thereof” (Gilead Apollo, LLC, priority 2015, dated 2021):
In brackets after ≈: the same amount, converted by molar mass.

Assays:
Diplodia maydis (Dm) = assay: In vitro pathogen growth inhibition assay, Dm; assay type: cell-based; conditions: Stenocarpella maydis, 48 h, ≥90% growth inhibition; 48 hours; vs 2% DMSO control; read-out: Compound Concentration (ppm) sufficient for ≥90% inhibition of Dm
In short: (§1)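 Spores in 17% V8 liquid medium, or 1.5 mm Rs mycelial plugs in ¼ PDB, incubated with compound; final concentration checked by OD600 for precipitation. OD readings at 24 and 48 h, blank-subtracted, plus visual ratings; value is concentration giving ≥90% growth inhibition.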

[1] = system: Fusarium virguliforme (Fv); assay: In vitro pathogen growth inhibition assay, Fv; assay type: cell-based; conditions: ≥90% growth inhibition, 48 hours, vs 2% DMSO control, read-out: Compound Concentration (ppm) sufficient for ≥90% inhibition of Fv
In short: as §1

Sphaerotheca fuliginea = assay: Foliar protection for cucumber powdery mildew control; assay type: in vivo; conditions: foliar spray on Cucumis sativus cv. Straight Eight, inoculated 24 hours after treatment, evaluated 7 days later
In short: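 Protective foliar spray on 10-day-old Straight Eight cucumbers, with S. fuliginea spores dusted from infected stock plants 24 h after treatment. Disease developed at 23–27 °C, 60% RH and a 16 h photoperiod. Leaves were rated for mildew growth after 7 days; test rates 10 ppm or below.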

Septoria tritici (St) = assay: In vitro pathogen growth inhibition assay, St; assay type: cell-based; conditions: Zymoseptoria tritici, 48 h, ≥90% growth inhibition; 48 hours; vs 2% DMSO control; read-out: Compound Concentration (ppm) sufficient for ≥90% inhibition of St
In short: (§2)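 Value reported is the compound concentration reaching ≥90% growth inhibition, from OD readings at 24 and 48 h after blank subtraction, confirmed visually. Inoculum was spores diluted in 17% V8 medium, except Rs, using 1.5 mm mycelial plugs in ¼ PDB; actual compound concentration corrected via OD600.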

[2] = system: Fusarium moniliforme (Fm); assay: In vitro pathogen growth inhibition assay, Fm; assay type: cell-based; conditions: Fusarium verticillioides; ≥90% growth inhibition; 48 hours; vs 2% DMSO control; read-out: Compound Concentration (ppm) sufficient for ≥90% inhibition of Fm
In short: as §2

Rhizoctonia solani (Rs) = assay: In vitro pathogen growth inhibition assay, Rs (mycelial plugs); assay type: cell-based; conditions: Rhizoctonia solani, 48 h, ≥90% growth inhibition; mycelial plugs; 48 hours; vs 2% DMSO control; read-out: Compound Concentration (ppm) sufficient for ≥90% inhibition of Rs
In short: as §1

Puccinia triticina = assay: Foliar protection test for wheat leaf rust control; assay type: in vivo; conditions: foliar application to wheat (Triticum aestivum cv. Winterhawk), evaluated 10 days later
[3] = system: Blumeria graminis f. sp. hordei; assay: Foliar protection test for barley powdery mildew control; assay type: in vivo; conditions: foliar spray on Hordeum vulgare cv. Perry, inoculated 24 hours after treatment, evaluated 7 days later
In short: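 Protective foliar test: compound atomized onto both leaf surfaces of 6-day-old Hordeum vulgare cv. Perry, followed after 24 h by spore-cloud inoculation from colonized untreated plants. Disease rated on leaves 7 days on, plants held at 20 to 22° C and 70% RH.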

[4] = system: Collectotrichum graminicola (Cg); assay: In vitro pathogen growth inhibition assay, Cg; assay type: cell-based; conditions: 48 h, ≥90% growth inhibition; 48 hours; vs 2% DMSO control; read-out: Compound Concentration (ppm) sufficient for ≥90% inhibition of Cg
In short: as §2

Fusarium graminearum = assay type: in vivo; conditions: spray on flowering Triticum aestivum cv. Samson, inoculated 24 hours after treatment, evaluated 14 days later
Botrtyis cinerea (Bc) = assay: In vitro pathogen growth inhibition assay, Bc; assay type: cell-based; conditions: 48 h, ≥90% growth inhibition; 48 hours; vs 2% DMSO control; read-out: Compound Concentration (ppm) sufficient for ≥90% inhibition of Bc
In short: as §2

[5] = system: Mycosphaerella graminicola (synthetic Septoria tritici); assay: Foliar protection test for wheat septoria leaf blotch control; assay type: in vivo; conditions: foliar spray on Triticum aestivum cv. WinterHawk, inoculated 1 hour after treatment, evaluated 16 days later
Phakopsora pachyrhizi = assay: Foliar protection test for Asian soybean rust control; assay type: in vivo; conditions: foliar application to soybean (Glycine max AG4832), percent disease area evaluated 14 days later
[6] = system: Phytophthora capsici (Pc); assay: In vitro pathogen growth inhibition assay, Pc; assay type: cell-based; conditions: 48 h, ≥90% growth inhibition, 48 hours, vs 2% DMSO control, read-out: Compound Concentration (ppm) sufficient for ≥90% inhibition of Pc
In short: as §1

SMILES	IC90 (Diplodia maydis (Dm))	IC90 [1]	Cucumber Powdery Mildew Control at a compound concentration of 10 ppm or lower (Sphaerotheca fuliginea)	IC90 (Septoria tritici (St))	IC90 [2]	IC90 (Rhizoctonia solani (Rs))	Wheat Leaf Rust Control at a compound concentration of 10 ppm or lower (Puccinia triticina)	Barley Powdery Mildew Control at a compound concentration of 10 ppm or lower [3]	IC90 [4]	Wheat Fusarium Head Blight Control at a compound concentration of 25 ppm or lower (Fusarium graminearum)	IC90 (Botrtyis cinerea (Bc))	Septoria Leaf Blotch Control at a compound concentration of 25 ppm or lower [5]	Asian Soybean Rust Control at a compound concentration of 25 ppm or lower (Phakopsora pachyrhizi)	IC90 [6]
COc1ccc(F)cc1[C@H](Cn1c(=O)n(C(C)(C)C(=O)NC(C)C)c(=O)c2c(C)c(-n3nccn3)sc21)OC[C@@H](C)C#N [Compound I-211, 2-(1-((R)-2-((S)-2-cyanopropoxy)-2-(5-fluoro-2-methoxyphenyl)ethyl)-5-methyl-2,4-dioxo-6-(2H-1,2,3-triazol-2-yl)-1,4-dihydrothieno[2,3-d]pyrimidin-3 (2H)-yl)-N-isopropyl-2-methylpropanamide]	0.08 µg/mL (≈ 0.131 µM)	0.4 µg/mL (≈ 0.654 µM)	AA (≥85% control of cucumber powdery mildew)	> 50 µg/mL	0.08 µg/mL (≈ 0.131 µM)	0.08 µg/mL (≈ 0.131 µM)	A (from 70% to 84% control of wheat leaf rust)	AA (≥85% control of barley powdery mildew)	0.08 µg/mL (≈ 0.131 µM)	C (from 25 to 49% control of wheat fusarium head blight)	0.4 µg/mL (≈ 0.654 µM)	AA (≥85% control of wheat septoria leaf blotch)	AA (≥85% control of Asian soybean rust)	> 50 µg/mL
COc1ccc(F)cc1[C@H](Cn1c(=O)n(C(C)(C)C(=O)NC(C)C)c(=O)c2c(C)c(-n3nccn3)sc21)OC[C@H](C)C#N [Compound I-212, 2-(1-((R)-2-((R)-2-cyanopropoxy)-2-(5-fluoro-2-methoxyphenyl)ethyl)-5-methyl-2,4-dioxo-6-(2H-1,2,3-triazol-2-yl)-1,4-dihydrothieno[2,3-d]pyrimidin-3 (2H)-yl)-N-isopropyl-2-methylpropanamide]	≥ 0.08 µg/mL	0.4 µg/mL (≈ 0.654 µM)	AA (≥85% control of cucumber powdery mildew)	> 50 µg/mL	0.08 µg/mL (≈ 0.131 µM)	0.08 µg/mL (≈ 0.131 µM)	AA (≥85% control of wheat leaf rust)	AA (≥85% control of barley powdery mildew)	0.08 µg/mL (≈ 0.131 µM)	B (from 50 to 69% control of wheat fusarium head blight)	0.4 µg/mL (≈ 0.654 µM)	AA (≥85% control of wheat septoria leaf blotch)	AA (≥85% control of Asian soybean rust)	> 50 µg/mL
COc1ccc(F)cc1[C@H](Cn1c(=O)n(C(C)(C)C(=O)NC(C)C)c(=O)c2c(C)c(-n3nccn3)sc21)OCC(C)(C)C#N [Compound I-213, (R)-2-(1-(2-(2-cyano-2-methylpropoxy)-2-(5-fluoro-2-methoxyphenyl)ethyl)-5-methyl-2,4-dioxo-6-(2H-1,2,3-triazol-2-yl)-1,4-dihydrothieno[2,3-d]pyrimidin-3 (2H)-yl)-N-isopropyl-2-methylpropanamide]	≥ 0.08 µg/mL	0.4 µg/mL (≈ 0.639 µM)	AA (≥85% control of cucumber powdery mildew)	> 50 µg/mL	0.08 µg/mL (≈ 0.128 µM)	0.08 µg/mL (≈ 0.128 µM)	B (from 50 to 69% control of wheat leaf rust)	A (from 70% to 84% control of barley powdery mildew)	0.4 µg/mL (≈ 0.639 µM)	B (from 50 to 69% control of wheat fusarium head blight)	0.4 µg/mL (≈ 0.639 µM)	AA (≥85% control of wheat septoria leaf blotch)	B (from 50 to 69% control of Asian soybean rust)	> 50 µg/mL
CCOC(=O)c1sc2c(c1C)c(=O)n([C@H](C)C(=O)N(C)C(C)C)c(=O)n2C[C@H](OCCC#N)c1cc(F)ccc1OC [Compound I-229, (R)-ethyl-1-(2-(2-cyanoethoxy)-2-(5-fluoro-2-methoxyphenyl)ethyl)-3-((R)-1-(isopropyl(methyl)amino)-1-oxopropan-2-yl)-5-methyl-2,4-dioxo-1,2,3,4-tetrahydrothieno[2,3-d]pyrimidine-6-carboxylate]	2 µg/mL (≈ 3.32 µM)	0.4 µg/mL (≈ 0.664 µM)	AA (≥85% control of cucumber powdery mildew)	> 50 µg/mL	0.08 µg/mL (≈ 0.133 µM)	2 µg/mL (≈ 3.32 µM)	B (from 50 to 69% control of wheat leaf rust)	AA (≥85% control of barley powdery mildew)	2 µg/mL (≈ 3.32 µM)	C (from 25 to 49% control of wheat fusarium head blight)	2 µg/mL (≈ 3.32 µM)	D (<25% control of wheat septoria leaf blotch)	C (from 25 to 49% control of Asian soybean rust)	> 50 µg/mL
CCNC(=O)C(C)(C)n1c(=O)c2c(C)c(C(=O)OCC)sc2n(C[C@H](OCCC#N)c2cc(F)ccc2OC)c1=O [Compound I-231, (R)-ethyl-1-(2-(2-cyanoethoxy)-2-(5-fluoro-2-methoxyphenyl)ethyl)-3-(1-(ethylamino)-2-methyl-1-oxopropan-2-yl)-5-methyl-2,4-dioxo-1,2,3,4-tetrahydrothieno[2,3-d]pyrimidine-6-carboxylate]	0.4 µg/mL (≈ 0.68 µM)	2 µg/mL (≈ 3.4 µM)	AA (≥85% control of cucumber powdery mildew)	≥ 10 µg/mL	0.08 µg/mL (≈ 0.136 µM)	0.08 µg/mL (≈ 0.136 µM)	AA (≥85% control of wheat leaf rust)	AA (≥85% control of barley powdery mildew)	0.4 µg/mL (≈ 0.68 µM)	C (from 25 to 49% control of wheat fusarium head blight)	2 µg/mL (≈ 3.4 µM)	C (from 25 to 49% control of wheat septoria leaf blotch)	A (from 70% to 84% control of Asian soybean rust)	> 50 µg/mL
CCOC(=O)c1sc2c(c1C)c(=O)n(C(C)(C)C(=O)NC(C)C)c(=O)n2C[C@H](OCCC#N)c1ccccc1OC [Compound I-233, (R)-ethyl-1-(2-(2-cyanoethoxy)-2-(2-methoxyphenyl)ethyl)-3-(1-(isopropylamino)-2-methyl-1-oxopropan-2-yl)-5-methyl-2,4-dioxo-1,2,3,4-tetrahydrothieno[2,3-d]pyrimidine-6-carboxylate]	0.4 µg/mL (≈ 0.684 µM)	0.4 µg/mL (≈ 0.684 µM)	A (from 70% to 84% control of cucumber powdery mildew)	≥ 10 µg/mL	0.08 µg/mL (≈ 0.137 µM)	2 µg/mL (≈ 3.42 µM)	AA (≥85% control of wheat leaf rust)	AA (≥85% control of barley powdery mildew)	0.4 µg/mL (≈ 0.684 µM)	C (from 25 to 49% control of wheat fusarium head blight)	0.4 µg/mL (≈ 0.684 µM)	C (from 25 to 49% control of wheat septoria leaf blotch)	A (from 70% to 84% control of Asian soybean rust)	≥ 2 µg/mL
